Experimental data taken from article PMC4138103 (PLoS ONE, 2014).
Like-named read-outs stand apart in the source and are kept apart here.

System: Sprague-Dawley rats
Assay: Bone geometry and densitometry (pQCT of tibia)
Assay type: in vivo, Rattus norvegicus
Conditions: for CED, Cortical area of diaphysis / CED-L, Cortical area of diaphysis: M; for Emax: Rattus norvegicus; for Densitometry, diaphysis: Cortical area / Densitometry, diaphysis: Cortical density / Densitometry, diaphysis: Cortical thickness / Densitometry, diaphysis: Endosteal circumference / Densitometry, diaphysis: Periosteal circumference / Densitometry, metaphysis: Total density / Densitometry, metaphysis: Trabecular area / Densitometry, metaphysis: Trabecular density: tibia
Experimental: Hind limbs were collected and frozen at −20°C. Dissected right tibias were cleaned from soft tissue and stored in Ringer solution at −20°C until analysis. The length of each bone was measured using an electronic sliding caliper to the nearest 0.01 mm (IP65, Sylvac SA, Crissier, Switzerland). […] The thresholds for defining trabecular bone were 280 and 400 mg/cm^3, while cortical bone was defined above a threshold of 710 mg/cm^3. The voxel size was 0.07 mm.
Data were also analyzed using the BMD method, which is based on dose-response modeling of the full data set using a nested family of exponential and Hill models. The analyses were done on data of males and females combined, using sex as a covariate. […] In that case, different Critical Effect Doses (CEDs) and CEDs at the lowest bound of the confidence interval (CED-L) were generated for each sex. If no difference between sexes is detected, a CED and CED-Ls for the combined data is generated. However, this was also done if the curve fits are close, and separate analyses for males and females were then performed manually. CEDs and CED-Ls were calculated at the predefined Critical Effect Size (CES) of 5% (EFSA standard) or 10%.

[1] = F, CES 5%, model E2, adipose tissue concentration based
[2] = F, CES 10%, model E2, adipose tissue concentration based
[3] = CES 5%, model E2, adipose tissue concentration based
[4] = CES 10%, model E2, adipose tissue concentration based
[5] = females, CES 5%, total dose based
[6] = males, CES 5%, total dose based
[7] = females, total dose 10 mg/kg bw
[8] = females, total dose 30 mg/kg bw
[9] = females, total dose 100 mg/kg bw
[10] = females, total dose 300 mg/kg bw
[11] = females, total dose 1000 mg/kg bw

## Clc1cc(Cl)c(-c2cc(Cl)c(Cl)c(Cl)c2Cl)cc1Cl [PCB 180, 2,2′,3′,4,4′,5,5′-heptachlorobiphenyl]
[1]
  CED, Trabecular area of metaphysis: 6230 µg/g lipid
  CED-L, Trabecular area of metaphysis: 3714 µg/g lipid
[2]
  CED, Trabecular area of metaphysis: 12200 µg/g lipid
  CED-L, Trabecular area of metaphysis: 7255 µg/g lipid
[3]
  CED, Cortical area of diaphysis: 5930 µg/g lipid
  CED-L, Cortical area of diaphysis: 3506 µg/g lipid
[4]
  CED, Cortical area of diaphysis: 12200 µg/g lipid
  CED-L, Cortical area of diaphysis: 7202 µg/g lipid
F, model E2, controls vs high dose according to the fitted model, read-out: Maximum response, Trabecular area of metaphysis
  Emax: 9.25%
females, controls vs high dose, fitted model, read-out: Trabecular area of metaphysis, Maximum response
  Emax: 8.2%
males, controls vs high dose, fitted model, read-out: Cortical area of diaphysis, Maximum response
  Emax: -6.1%
Model E2, controls vs high dose according to the fitted model, read-out: Maximum response, Cortical area of diaphysis
  Emax: -6.19%
[5]
  Trabecular area of metaphysis, CED: 1040 mg/kg bw
  Trabecular area of metaphysis, CED-L: 602 mg/kg bw
females, adipose tissue concentration based
  Trabecular area of metaphysis, CED: 6230 µg/g lipid
females, controls vs high dose, fitted model
  Trabecular area of metaphysis, Maximum response: 8.30%
[6]
  Cortical area of diaphysis, CED: 1380 mg/kg bw
  Cortical area of diaphysis, CED-L: 820 mg/kg bw
males, adipose tissue concentration based
  Cortical area of tibial diaphysis, CED: 5930 µg/g lipid
females, total dose 3 mg/kg bw
  Densitometry, diaphysis: Cortical area: 3.25 mm2
  Densitometry, diaphysis: Cortical density: 1315 mg/cm3
  Densitometry, diaphysis: Cortical thickness: 0.49 mm
  Densitometry, diaphysis: Endosteal circumference: 5.06 mm
  Densitometry, diaphysis: Periosteal circumference: 8.15 mm
  Densitometry, metaphysis: Total density: 570 mg/cm3
  Densitometry, metaphysis: Trabecular area: 5.33 mm2
  Densitometry, metaphysis: Trabecular density: 195 mg/cm3
[7]
  Densitometry, diaphysis: Cortical area: 3.22 mm2
  Densitometry, diaphysis: Cortical density: 1312 mg/cm3
  Densitometry, diaphysis: Cortical thickness: 0.49 mm
  Densitometry, diaphysis: Endosteal circumference: 5.06 mm
  Densitometry, diaphysis: Periosteal circumference: 8.12 mm
  Densitometry, metaphysis: Total density: 571 mg/cm3
  Densitometry, metaphysis: Trabecular area: 5.37 mm2
  Densitometry, metaphysis: Trabecular density: 199 mg/cm3
[8]
  Densitometry, diaphysis: Cortical area: 3.23 mm2
  Densitometry, diaphysis: Cortical density: 1311 mg/cm3
  Densitometry, diaphysis: Cortical thickness: 0.49 mm
  Densitometry, diaphysis: Endosteal circumference: 5.08 mm
  Densitometry, diaphysis: Periosteal circumference: 8.14 mm
  Densitometry, metaphysis: Total density: 569 mg/cm3
  Densitometry, metaphysis: Trabecular area: 5.52 mm2
  Densitometry, metaphysis: Trabecular density: 211 mg/cm3
[9]
  Densitometry, diaphysis: Cortical area: 3.21 mm2
  Densitometry, diaphysis: Cortical density: 1307 mg/cm3
  Densitometry, diaphysis: Cortical thickness: 0.49 mm
  Densitometry, diaphysis: Endosteal circumference: 4.95 mm
  Densitometry, diaphysis: Periosteal circumference: 8.06 mm
  Densitometry, metaphysis: Total density: 586 mg/cm3
  Densitometry, metaphysis: Trabecular area: 4.99 mm2
  Densitometry, metaphysis: Trabecular density: 209 mg/cm3
[10]
  Densitometry, diaphysis: Cortical area: 3.26 mm2
  Densitometry, diaphysis: Cortical density: 1310 mg/cm3
  Densitometry, diaphysis: Cortical thickness: 0.50 mm
  Densitometry, diaphysis: Endosteal circumference: 5.01 mm
  Densitometry, diaphysis: Periosteal circumference: 8.13 mm
  Densitometry, metaphysis: Total density: 581 mg/cm3
  Densitometry, metaphysis: Trabecular area: 5.25 mm2
  Densitometry, metaphysis: Trabecular density: 214 mg/cm3
[11]
  Densitometry, diaphysis: Cortical area: 3.23 mm2
  Densitometry, diaphysis: Cortical density: 1309 mg/cm3
  Densitometry, diaphysis: Cortical thickness: 0.49 mm
  Densitometry, diaphysis: Endosteal circumference: 4.97 mm
  Densitometry, diaphysis: Periosteal circumference: 8.08 mm
  Densitometry, metaphysis: Total density: 574 mg/cm3
  Densitometry, metaphysis: Trabecular area: 5.41 mm2
